In assay [1] the target is Plasma Kallikrein (Homo sapiens (Human), UniProt P03952). Put plainly: Determination of related protease inhibition: Plasma Kallikrein (fluorogenic substrate at Km). It is filed as biochemical. Conditions: 25° C., read-out: IC50 (human PKal). The procedure, abridged:
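Human enzymes incubated with varied inhibitor concentrations and fluorogenic substrate at Km. Fluorescence release followed over 5 min at 25 °C; linear rate expressed as % activity, IC50 as inhibitor concentration giving 50% inhibition of uninhibited enzyme.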

The target in assay [2] is Human Factor XIIa (Homo sapiens (Human), UniProt P00748). As to the kind of experiment: Determination of FXIIa inhibition (fluorogenic substrate H-DPro-Phe-Arg-AFC, IC50 assay). The note with it: substrate H-DPro-Phe-Arg-AFC at Km, 25° C.; class scale A-G. It is filed as biochemical. In short, it runs like this:
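Human FXIIa incubated at 25° C with fluorogenic substrate H-DPro-Phe-Arg-AFC at its Km concentration and varying compound concentrations. Fluorescence release monitored over 5 min at 25° C; linear rate expressed as % of uninhibited activity to derive IC50.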

Chain of Plasma Kallikrein (P03952 391-638): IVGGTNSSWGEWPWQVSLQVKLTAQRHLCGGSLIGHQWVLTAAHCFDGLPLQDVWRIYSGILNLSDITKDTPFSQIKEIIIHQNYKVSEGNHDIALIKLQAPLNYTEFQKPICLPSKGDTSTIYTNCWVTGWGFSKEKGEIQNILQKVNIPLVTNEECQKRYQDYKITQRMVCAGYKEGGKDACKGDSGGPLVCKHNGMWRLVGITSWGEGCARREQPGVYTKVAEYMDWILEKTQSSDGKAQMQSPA
Chain of Plasma Kallikrein (P03952 20-390 partner): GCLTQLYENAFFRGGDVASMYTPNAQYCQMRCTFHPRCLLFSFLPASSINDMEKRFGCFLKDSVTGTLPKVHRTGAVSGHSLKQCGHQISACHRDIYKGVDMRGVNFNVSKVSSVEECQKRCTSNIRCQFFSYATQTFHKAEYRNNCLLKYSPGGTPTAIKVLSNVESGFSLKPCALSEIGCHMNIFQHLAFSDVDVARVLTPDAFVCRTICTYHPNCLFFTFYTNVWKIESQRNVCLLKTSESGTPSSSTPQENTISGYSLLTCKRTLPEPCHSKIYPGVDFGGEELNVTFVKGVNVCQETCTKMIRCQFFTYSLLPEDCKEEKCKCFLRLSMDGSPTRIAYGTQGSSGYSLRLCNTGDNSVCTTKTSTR
Chain of Human Factor XIIa (P00748 373-615): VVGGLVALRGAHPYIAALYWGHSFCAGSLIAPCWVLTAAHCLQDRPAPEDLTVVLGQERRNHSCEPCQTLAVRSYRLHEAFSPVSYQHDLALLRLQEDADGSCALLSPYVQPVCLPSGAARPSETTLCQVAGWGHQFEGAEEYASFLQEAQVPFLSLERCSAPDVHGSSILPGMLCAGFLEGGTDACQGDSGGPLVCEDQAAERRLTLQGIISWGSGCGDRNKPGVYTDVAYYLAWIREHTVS

Consider `CN1CCC(CNc2ccc(CNc3cc(C(F)(F)F)cc4[nH]c(Cl)cc34)cn2)CC1` [Example 1262, 2-chloro-N-((6-(((1-methylpiperidin-4-yl)methyl)amino)pyridin-3-yl)methyl)-6-(trifluoromethyl)-1H-indol-4-amine], for which the IC50 in assay [1] fell in the range of 3 to 10 µM; in assay [2], 1 to 3 µM.

Regarding `CN1CCC(CNc2ccc(CNc3cc(C(=O)O)nc4[nH]ccc34)cn2)CC1` [Example 1263, 4-(((6-(((1-methylpiperidin-4-yl)methyl)amino)pyridin-3-yl)methyl)amino)-1H-pyrrolo [2,3-b]pyridine-6-carboxylic acid], the 50% inhibitory concentration (IC50) is > 40 µM in assay [1] and 10 to 40 µM in assay [2].

With `Nc1nccc2c(NCc3ccc(N4CCC(CC(F)F)C4)nc3)cccc12` (centres unmarked) [Example 1265, N5-((6-(3-(2,2-difluoroethyl)pyrrolidin-1-yl)pyridin-3-yl)methyl)isoquinoline-1,5-diamine], the IC50 was > 40 µM in assay [1] and 3 to 10 µM in assay [2].

For `Nc1ncc(Cl)c2cc(NCc3ccc(N4CCC(CC(F)F)C4)nc3)ccc12` (centres unmarked) [Example 1266, 4-chloro-N6-((6-(3-(2,2-difluoroethyl)pyrrolidin-1-yl)pyridin-3-yl)methyl)isoquinoline-1,6-diamine], the IC50 in assay [1] is > 40 µM; in assay [2], 10 to 40 µM.

As to `Nc1ncc(Cl)c2cc(NCc3ccc(N4CCn5ncc(O)c5C4)nc3)ccc12` [Example 1267, 5-(5-(((1-amino-4-chloroisoquinolin-6-yl)amino)methyl)pyridin-2-yl)-4,5,6,7-tetrahydropyrazolo[1,5-a]pyrazin-3-ol], the IC50 in assay [1] was > 40 µM; in assay [2] it was 3 to 10 µM.

Turning to `Nc1nccc2c(NCc3ccc(N4CCn5nccc5C4CO)nc3)cccc12` (centres unmarked) [Example 1268, (5-(5-(((1-aminoisoquinolin-5-yl)amino)methyl)pyridin-2-yl)-4,5,6,7-tetrahydropyrazolo[1,5-a]pyrazin-4-yl)methanol], the IC50 was > 40 µM in assay [1] and 3 to 10 µM in assay [2].

For `Nc1nccc2c(NCc3ccc(N4CCn5ncc(CO)c5C4)nc3)cccc12` [Example 1269, (5-(5-(((1-aminoisoquinolin-5-yl)amino)methyl)pyridin-2-yl)-4,5,6,7-tetrahydropyrazolo[1,5-a]pyrazin-3-yl)methanol], the IC50 in assay [1] is > 40 µM; in assay [2], 10 to 40 µM.

On to `Nc1ncc(Cl)c2cc(NCc3ccc(N4CC5(CC(O)c6nccn65)C4)nc3)ccc12` (centres unmarked) [Example 1270, 1-(5-(((1-amino-4-chloroisoquinolin-6-yl)amino)methyl)pyridin-2-yl)-6′,7′-dihydrospiro[azetidine-3,5′-pyrrolo[1,2-a]imidazol]-7′-ol], for which the IC50 is > 40 µM in assay [1] and 10 to 40 µM in assay [2].

For `Nc1nccc2c(NCc3ccc(N4CCc5nccn5CC4)nc3)cccc12` [Example 1271, N5-((6-(5,6,8,9-tetrahydro-7H-imidazo[1,2-d][1,4]diazepin-7-yl)pyridin-3-yl)methyl)isoquinoline-1,5-diamine], the IC50 was 10 to 40 µM in assay [1] and 0.3 to 1 µM in assay [2].

For `Nc1ncc(Cl)c2cc(NCc3ccc(N4CCc5nccn5CC4)nc3)ccc12` [Example 1272, 4-chloro-N6-((6-(5,6,8,9-tetrahydro-7H-imidazo[1,2-d][1,4]diazepin-7-yl)pyridin-3-yl)methyl)isoquinoline-1,6-diamine], the IC50 lay within 10 to 40 µM in assay [1] and 1 to 3 µM in assay [2].

As to `Nc1ncc(Cl)c2cc(NCc3ccc(N4CCn5nccc5C4CO)nc3)ccc12` (centres unmarked) [Example 1273, (5-(5-(((1-amino-4-chloroisoquinolin-6-yl)amino)methyl)pyridin-2-yl)-4,5,6,7-tetrahydropyrazolo[1,5-a]pyrazin-4-yl)methanol], the IC50 in assay [1] is > 40 µM; in assay [2], 3 to 10 µM.

For `Nc1nccc2c(NCc3ccc(N4CCn5cnnc5C4)nc3)cccc12` [Example 1276, N5-((6-(5,6-dihydro-[1,2,4]triazolo[4,3-a]pyrazin-7(8H)-yl)pyridin-3-yl)methyl)isoquinoline-1,5-diamine], the IC50 is > 40 µM in assay [1] and 1 to 3 µM in assay [2].

`Cc1cc2c(NCc3ccc(N4CCn5c(nnc5C(F)F)C4)nc3)ccnc2[nH]1` [Example 1278, N-((6-(3-(Difluoromethyl)-5,6-dihydro-[1,2,4]triazolo[4,3-a]pyrazin-7(8H)-yl)pyridin-3-yl)methyl)-2-methyl-1H-pyrrolo[2,3-b]pyridin-4-amine]: the results for the IC50 in assay [1] and in assay [2] were > 40 µM and 1 to 3 µM, respectively.

As to `FC(F)(F)c1nnc2n1CCN(c1ccc(CNc3ccnc4[nH]c(Cl)cc34)cn1)C2` [Example 1280, 2-chloro-N-((6-(3-(trifluoromethyl)-5,6-dihydro-[1,2,4]triazolo[4,3-a]pyrazin-7(8H)-yl)pyridin-3-yl)methyl)-1H-pyrrolo[2,3-b]pyridin-4-amine], the IC50 in assay [1] is > 40 µM; in assay [2] it was 0.3 to 1 µM.

Turning to `CNc1cc(NCc2ccc(N3CCn4c(nnc4C(F)F)C3)nc2)ccn1` [Example 1281, N4-((6-(3-(difluoromethyl)-5,6-dihydro-[1,2,4]triazolo[4,3-a]pyrazin-7(8H)-yl)pyridin-3-yl)methyl)-N2-methylpyridine-2,4-diamine], the IC50 is > 40 µM in assay [1] and 10 to 40 µM in assay [2].

On to `FC(F)(F)c1nnc2n1CCN(c1ccc(CNc3ccc4cnccc4c3)cn1)C2` [Example 1283, N-((6-(3-(trifluoromethyl)-5,6-dihydro-[1,2,4]triazolo[4,3-a]pyrazin-7(8H)-yl)pyridin-3-yl)methyl)isoquinolin-6-amine], for which the figures for the IC50 in assay [1] and in assay [2] were > 40 µM and 3 to 10 µM, respectively.

`Nc1nccc2c(NCc3ccc(N4CCn5ncc(O)c5C4)nc3)cccc12` [Example 1312, 5-(5-(((1-aminoisoquinolin-5-yl)amino)methyl)pyridin-2-yl)-4,5,6,7-tetrahydropyrazolo[1,5-a]pyrazin-3-ol]: the IC50 in assay [1] is > 40 µM; in assay [2], 3 to 10 µM.

For the compound `CN1CCC(OCc2ccc(CNc3ccc4nc(N)ccc4c3)cc2)CC1` [Example 2187, N6-(4-(((1-methylpiperidin-4-yl)oxy)methyl)benzyl)quinoline-2,6-diamine], the IC50 in assay [1] fell in the range of 10 to 40 µM; in assay [2], 3 to 10 µM.

In the case of `CN1CCC(OCc2ccc(CNc3ccc4cc(N)ncc4c3)cc2)CC1` [Example 2188, 7-N-[(4-{[(1-methylpiperidin-4-yl)oxy]methyl}phenyl)methyl]isoquinoline-3,7-diamine], the IC50 in assay [1] and in assay [2] was 10 to 40 µM each time.

Regarding `CN1CCC(OCc2ccc(CNc3ccc4cnc(N)cc4c3)cc2)CC1` [Example 2189, N6-(4-(((1-methylpiperidin-4-yl)oxy)methyl)benzyl)isoquinoline-3,6-diamine], the IC50 in assay [1] and in assay [2] was 10 to 40 µM throughout.

On to `CN1CCC(OCc2ccc(CN(C)c3ccc4c(N)nccc4c3)cc2)CC1` [Example 2190, N6-methyl-N6-(4-(((1-methylpiperidin-4-yl)oxy)methyl)benzyl)isoquinoline-1,6-diamine], for which the half-inhibitory concentration (IC50) in assay [1] was 3 to 10 µM; in assay [2], 1 to 3 µM.

Consider `CC(C)N1CCC(OCc2ccc(CNc3ccc4c(N)nccc4c3)c(F)c2)CC1` [Example 2216, 6-N-[(2-fluoro-4-{[(1-isopropylpiperidin-4-yl)oxy]methyl}phenyl)methyl]isoquinoline-1,6-diamine], for which the IC50 lay within 1 to 3 µM in assay [1] and 0.1 to 0.3 µM in assay [2].

In general, IC50 refers to the concentration needed to halve the response being measured.
